# The source made the active and inactive calls. Rule as the data show it, for most assays here: actives have a measured EC50 and inactives only a lower limit.
# What was measured:
# cells [1] = type: functional
# [2] = target: T1, Rac GTPase-activating protein 1 (Homo sapiens, UniProt Q9H0H5); test: blockers of MgcRacGAP-driven Rac1 GTP hydrolysis – biochemical, ADP Hunter fluorescence, primary and confirmatory, confirmation (AID 624330); type: functional
# T1 sequence (Q9H0H5 whole entry): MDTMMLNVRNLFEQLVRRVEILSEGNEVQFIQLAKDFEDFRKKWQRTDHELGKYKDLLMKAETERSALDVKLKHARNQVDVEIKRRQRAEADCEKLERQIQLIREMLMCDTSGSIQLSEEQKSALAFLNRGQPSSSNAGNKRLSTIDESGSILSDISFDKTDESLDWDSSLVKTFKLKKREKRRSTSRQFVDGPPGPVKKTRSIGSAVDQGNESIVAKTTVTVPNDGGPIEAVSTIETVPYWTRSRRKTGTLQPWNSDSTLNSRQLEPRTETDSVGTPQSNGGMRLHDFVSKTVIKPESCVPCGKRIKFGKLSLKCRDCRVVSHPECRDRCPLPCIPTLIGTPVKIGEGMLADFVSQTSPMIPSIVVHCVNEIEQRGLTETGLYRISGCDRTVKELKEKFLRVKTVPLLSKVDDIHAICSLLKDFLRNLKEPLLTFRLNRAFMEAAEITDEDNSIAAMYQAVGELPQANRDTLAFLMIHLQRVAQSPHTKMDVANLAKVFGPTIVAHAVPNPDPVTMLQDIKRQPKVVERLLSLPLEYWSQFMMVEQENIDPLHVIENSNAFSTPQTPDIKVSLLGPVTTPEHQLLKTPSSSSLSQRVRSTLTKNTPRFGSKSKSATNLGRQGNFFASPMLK
# [3] = target: T2, Polyadenylate-binding protein 1 (Homo sapiens, UniProt P11940); test: MLLE binding blockers, Cy5 peptide tracer – biochemical, fluorescence polarization, Cy5-PAM2 peptide, secondary, miRNA deadenylation inhibitor project, dose response (AID 602260); type: functional; settings: read-out: IC50_Mean
# T2 sequence (P11940 whole entry, the tested form may be a part): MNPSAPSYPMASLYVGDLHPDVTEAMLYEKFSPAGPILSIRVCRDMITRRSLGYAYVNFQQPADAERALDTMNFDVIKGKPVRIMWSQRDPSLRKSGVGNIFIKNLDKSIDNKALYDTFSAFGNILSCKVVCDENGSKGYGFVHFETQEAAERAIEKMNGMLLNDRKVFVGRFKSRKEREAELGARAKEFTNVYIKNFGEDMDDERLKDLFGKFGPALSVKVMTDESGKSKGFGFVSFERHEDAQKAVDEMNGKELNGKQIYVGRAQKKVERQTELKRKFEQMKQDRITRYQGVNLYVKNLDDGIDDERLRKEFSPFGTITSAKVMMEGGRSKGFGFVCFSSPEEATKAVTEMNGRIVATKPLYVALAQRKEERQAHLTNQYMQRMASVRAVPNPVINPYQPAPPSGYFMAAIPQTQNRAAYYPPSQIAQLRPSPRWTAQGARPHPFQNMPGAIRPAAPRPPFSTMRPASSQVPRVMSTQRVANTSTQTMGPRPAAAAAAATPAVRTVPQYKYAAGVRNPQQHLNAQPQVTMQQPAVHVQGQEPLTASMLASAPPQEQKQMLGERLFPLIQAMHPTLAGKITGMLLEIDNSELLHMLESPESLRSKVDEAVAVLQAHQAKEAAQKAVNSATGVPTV
# [4] = target: T2, Polyadenylate-binding protein 1; test: MLLE domain peptide-binding blockers, IC50 – biochemical, fluorescence polarization, FITC-PAM2 peptide, dose response (AID 602259); type: functional; settings: read-out: IC50_Mean
# [5] = target: T3, Zinc finger protein mex-5 (Caenorhabditis elegans, UniProt Q9XUB2); test: potency of MEX-5 RNA-binding blockers – biochemical, C. elegans, fluorescence polarization, dose response (AID 1960)
# T3 sequence (Q9XUB2 whole entry): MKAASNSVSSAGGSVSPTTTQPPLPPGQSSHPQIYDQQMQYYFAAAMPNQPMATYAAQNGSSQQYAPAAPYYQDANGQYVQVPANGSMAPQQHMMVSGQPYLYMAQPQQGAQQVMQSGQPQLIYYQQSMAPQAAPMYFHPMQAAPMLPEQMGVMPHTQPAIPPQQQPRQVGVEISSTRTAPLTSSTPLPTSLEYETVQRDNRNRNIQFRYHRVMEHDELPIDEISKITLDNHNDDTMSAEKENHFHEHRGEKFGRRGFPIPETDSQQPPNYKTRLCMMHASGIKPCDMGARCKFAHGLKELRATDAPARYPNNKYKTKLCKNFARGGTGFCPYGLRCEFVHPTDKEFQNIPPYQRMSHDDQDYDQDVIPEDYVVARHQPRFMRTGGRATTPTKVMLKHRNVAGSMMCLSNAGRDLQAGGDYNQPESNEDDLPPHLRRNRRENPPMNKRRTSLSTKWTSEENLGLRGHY
# [6] = target: T4, RNA-binding protein pos-1 (Caenorhabditis elegans, UniProt G5EF15); test: disruptors of C. elegans POS-1 RNA interaction – biochemical, fluorescence polarization, dose response (AID 1964);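 also: purified POS-1 fused to maltose binding protein made in E. coli; potency of compounds blocking POS-1 binding to fluorescent RNA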
# T4 sequence (G5EF15 whole entry): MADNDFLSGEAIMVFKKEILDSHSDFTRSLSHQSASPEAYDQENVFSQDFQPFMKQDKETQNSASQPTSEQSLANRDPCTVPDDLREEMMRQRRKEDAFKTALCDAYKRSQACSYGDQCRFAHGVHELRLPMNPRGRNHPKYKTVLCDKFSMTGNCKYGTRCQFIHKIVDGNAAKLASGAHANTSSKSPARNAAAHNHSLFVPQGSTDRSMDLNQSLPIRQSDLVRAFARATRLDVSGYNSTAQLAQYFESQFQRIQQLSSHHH
# Cytochrome P450 2C9 = Cytochrome P450 2C9 (Homo sapiens, UniProt P11712)
# Sequence of Cytochrome P450 2C9 (P11712 whole entry): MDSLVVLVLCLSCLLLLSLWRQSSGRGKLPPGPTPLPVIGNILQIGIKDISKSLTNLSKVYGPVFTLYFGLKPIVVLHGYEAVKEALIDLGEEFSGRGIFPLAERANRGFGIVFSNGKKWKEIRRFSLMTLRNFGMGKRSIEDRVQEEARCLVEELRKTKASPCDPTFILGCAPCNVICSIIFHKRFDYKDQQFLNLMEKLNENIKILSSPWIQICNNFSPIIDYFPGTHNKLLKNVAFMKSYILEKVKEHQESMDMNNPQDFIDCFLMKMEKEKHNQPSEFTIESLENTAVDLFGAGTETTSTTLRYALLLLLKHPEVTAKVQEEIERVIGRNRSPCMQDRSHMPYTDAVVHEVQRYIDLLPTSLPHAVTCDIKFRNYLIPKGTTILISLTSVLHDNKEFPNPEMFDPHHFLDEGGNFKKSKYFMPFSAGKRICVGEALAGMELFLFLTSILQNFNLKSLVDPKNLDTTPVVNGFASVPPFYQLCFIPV
# Cytochrome P450 3A4 = Cytochrome P450 3A4 (Homo sapiens, UniProt P08684);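 also: CYP3A4 tested as one member of a cytochrome P450 panel screen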
# Sequence of Cytochrome P450 3A4 (P08684 whole entry): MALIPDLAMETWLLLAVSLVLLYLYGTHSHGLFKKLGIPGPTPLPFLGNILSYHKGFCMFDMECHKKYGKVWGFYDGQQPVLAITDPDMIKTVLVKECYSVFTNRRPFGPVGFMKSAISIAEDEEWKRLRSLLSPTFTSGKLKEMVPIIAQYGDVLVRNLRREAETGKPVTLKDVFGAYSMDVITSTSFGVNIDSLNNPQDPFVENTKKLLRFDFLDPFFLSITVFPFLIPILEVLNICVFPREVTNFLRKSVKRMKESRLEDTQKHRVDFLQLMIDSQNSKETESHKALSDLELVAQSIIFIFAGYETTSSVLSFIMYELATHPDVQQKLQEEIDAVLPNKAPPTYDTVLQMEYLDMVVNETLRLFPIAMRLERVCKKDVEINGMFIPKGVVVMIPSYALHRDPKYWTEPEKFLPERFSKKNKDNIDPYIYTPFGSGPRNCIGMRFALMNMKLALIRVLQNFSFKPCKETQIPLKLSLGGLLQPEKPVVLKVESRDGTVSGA
# cells [7] = type: functional, cell-based
# cells [8] = type: functional, cell-based; remark: listed apart in the source
# Large T antigen = Large T antigen (Simian virus 40, UniProt P03070); type: functional, Betapolyomavirus macacae;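 also: Confirmatory-stage PubChem screen for compounds that inhibit SV40 T antigen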
# Sequence of Large T antigen (P03070 whole entry): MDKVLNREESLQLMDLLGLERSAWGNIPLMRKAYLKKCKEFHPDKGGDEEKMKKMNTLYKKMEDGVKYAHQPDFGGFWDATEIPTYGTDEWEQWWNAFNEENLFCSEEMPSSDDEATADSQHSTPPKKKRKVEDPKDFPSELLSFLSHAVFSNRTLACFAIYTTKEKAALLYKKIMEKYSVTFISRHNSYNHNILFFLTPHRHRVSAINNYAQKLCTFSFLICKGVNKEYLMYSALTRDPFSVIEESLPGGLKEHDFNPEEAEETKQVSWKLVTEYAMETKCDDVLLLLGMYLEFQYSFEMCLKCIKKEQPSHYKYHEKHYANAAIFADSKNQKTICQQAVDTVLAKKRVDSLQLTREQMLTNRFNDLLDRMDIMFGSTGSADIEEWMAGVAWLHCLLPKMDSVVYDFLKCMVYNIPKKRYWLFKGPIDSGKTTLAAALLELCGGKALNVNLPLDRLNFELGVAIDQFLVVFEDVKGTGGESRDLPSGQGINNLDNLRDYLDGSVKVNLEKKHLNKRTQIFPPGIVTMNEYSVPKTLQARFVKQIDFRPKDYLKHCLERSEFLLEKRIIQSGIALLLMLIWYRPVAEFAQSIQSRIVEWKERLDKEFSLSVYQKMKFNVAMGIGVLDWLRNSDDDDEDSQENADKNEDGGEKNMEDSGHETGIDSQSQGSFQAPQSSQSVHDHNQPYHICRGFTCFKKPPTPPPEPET
# [9] = target: T5, Heat shock factor protein 1 (Mus musculus, UniProt P38532); test: enhancement of HSF1-driven luciferase signal – cell-based, NIH3T3, luminescence, dose retest, confirmation (AID 435004); type: functional;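 also: stress induced by proteasome inhibitor MG132 added 30 min after compound; luciferase reporter driven by HSF1 response element in NIH3T3 cells; actives raise luminescence as potentiators of the MG132 stress response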
# T5 sequence (P38532 whole entry): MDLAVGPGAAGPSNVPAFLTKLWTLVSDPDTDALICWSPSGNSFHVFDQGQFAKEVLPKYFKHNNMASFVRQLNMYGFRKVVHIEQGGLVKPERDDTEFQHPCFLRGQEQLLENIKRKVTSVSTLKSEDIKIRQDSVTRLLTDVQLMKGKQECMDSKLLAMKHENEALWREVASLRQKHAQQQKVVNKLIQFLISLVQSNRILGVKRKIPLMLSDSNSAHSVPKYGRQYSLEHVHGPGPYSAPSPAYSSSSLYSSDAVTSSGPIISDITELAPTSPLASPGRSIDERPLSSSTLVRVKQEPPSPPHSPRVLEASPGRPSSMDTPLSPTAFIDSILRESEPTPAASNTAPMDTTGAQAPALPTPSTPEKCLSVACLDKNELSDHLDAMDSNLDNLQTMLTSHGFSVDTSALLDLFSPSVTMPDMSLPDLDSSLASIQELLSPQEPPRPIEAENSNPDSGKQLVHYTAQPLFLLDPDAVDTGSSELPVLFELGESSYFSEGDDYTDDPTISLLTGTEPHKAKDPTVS
# BJ [10] = test: BJ-TERT fibroblast viability loss – cell-based, RAS-independent, luminescence, dose response (AID 1933); type: functional; settings: Homo sapiens
# BJ [11] = test: BJ-TERT-LT-ST fibroblast viability loss – cell-based, RAS-independent, luminescence, dose response (AID 1935); type: functional; settings: Homo sapiens;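 also: BJ fibroblasts immortalized with TERT plus LT and ST oncogenes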
# [12] = target: Luciferin 4-monooxygenase (Photinus pyralis, UniProt P08659); test: inhibition of purified Photinus pyralis luciferase – biochemical, luminescence, dose response (AID 1891)
# Sequence of Luciferin 4-monooxygenase (P08659 whole entry): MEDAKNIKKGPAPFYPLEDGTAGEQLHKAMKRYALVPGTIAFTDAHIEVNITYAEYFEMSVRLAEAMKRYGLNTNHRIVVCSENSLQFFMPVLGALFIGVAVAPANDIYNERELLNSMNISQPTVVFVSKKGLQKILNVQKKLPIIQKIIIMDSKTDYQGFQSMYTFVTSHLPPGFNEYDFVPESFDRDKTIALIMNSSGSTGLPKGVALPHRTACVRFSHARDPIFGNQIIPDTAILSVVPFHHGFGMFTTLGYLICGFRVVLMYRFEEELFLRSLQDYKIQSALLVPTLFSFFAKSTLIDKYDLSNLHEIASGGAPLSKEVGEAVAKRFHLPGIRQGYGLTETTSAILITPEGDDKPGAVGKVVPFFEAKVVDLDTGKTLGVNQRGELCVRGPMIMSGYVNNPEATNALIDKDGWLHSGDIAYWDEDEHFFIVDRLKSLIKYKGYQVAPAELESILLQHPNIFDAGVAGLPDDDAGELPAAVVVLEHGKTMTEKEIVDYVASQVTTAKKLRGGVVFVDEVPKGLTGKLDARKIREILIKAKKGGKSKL
# BJ [13] = test: cells; type: functional, cell-based; settings: Homo sapiens
# [14] = DRD fibroblast viability loss – cell-based, non-viral oncogenic, luminescence, dose response (AID 1934); type: functional; settings: Homo sapiens
# [15] = Luminescence Cell-Based Dose Confirmation HTS to Identify Inhibitors of Platelet Dense Granule Release. [Related pubchem assays: 1663 (Primary HTS), 1678 (Summary of Project)]; type: functional
# [16] = target: FAD-linked sulfhydryl oxidase ALR (Homo sapiens, UniProt P55789); test: ALR-catalysed DTT oxidation blockers – biochemical, H2O2 detection, luminescence, cherry-pick, dose response (AID 493248)
# Sequence of FAD-linked sulfhydryl oxidase ALR (P55789 whole entry): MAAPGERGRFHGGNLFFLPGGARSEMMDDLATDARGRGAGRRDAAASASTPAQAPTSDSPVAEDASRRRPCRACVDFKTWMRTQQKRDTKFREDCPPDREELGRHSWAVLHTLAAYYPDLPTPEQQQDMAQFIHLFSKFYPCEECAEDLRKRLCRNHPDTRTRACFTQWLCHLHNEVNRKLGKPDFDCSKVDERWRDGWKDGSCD
smiles,measurement,setting,value
COc1ccc(C2(O)CCN(CCCCOc3ccccc3)CC2)cc1,IC50,cells [1],32.8 µM (active)
O=C(COC(=O)COc1ccc(Nc2ccccc2)cc1)NCc1ccco1,IC50,[2],77.4 µM (active)
same,IC50,cells [1],4.72 µM (active)
COc1ccc(NC(=O)CSc2nnc(NC(C)=O)s2)c([N+](=O)[O-])c1,IC50,[3],> 66 µM (inactive)
same,IC50,[4],> 66 µM (inactive)
Cc1ccccc1NC(=O)/C(C#N)=C/c1ccc(-c2ccc(Cl)c(C(=O)O)c2)o1,EC50,[5],> 300 µM (not active)
same,EC50,[6],> 300 µM (not active)
COc1cc(C2C(C#N)=C(N)OC3=C2C(=O)CCC3)cc(OC)c1OC(=O)N1CCOCC1 (stereo unspecified),EC50,[5],> 300 µM (not active)
same,AC50,Cytochrome P450 2C9,22.4 µM (inconclusive)
same,AC50,Cytochrome P450 3A4,25.1 µM (inconclusive)
same,EC50,[6],> 300 µM (not active)
C=CCn1c(=S)[nH]c2nc3c(cc2c1=O)COC(C)(C)C3,EC50,[5],> 300 µM (not active)
same,EC50,[6],> 300 µM (not active)
COC(=O)/C(C#N)=C/c1c(N2CCN(Cc3ccc4c(c3)OCO4)CC2)nc2c(C)cccn2c1=O,EC50,cells [7],> 350 µM (not active)
same,EC50,cells [8],> 350 µM (not active)
Cc1c(C)n(Cc2ccccc2)c2ncnc(NN)c12,IC50,Large T antigen,> 100 µM (active)
O=C(COc1ccc(Cl)cc1)Nc1ccc(Cl)cn1,IC50,cells [1],30.3 µM (active)
CCOC(=O)C(C)Oc1cc(Cl)c(C=O)cc1OC (stereo unspecified),EC50,[9],> 260 µM (inactive)
same,IC50,cells [1],24.4 µM (active)
Fc1cccc(/C=N/Nc2nccnc2Cl)c1,EC50,BJ [10],11.9 µM (active)
same,EC50,BJ [11],> 75 µM (inconclusive)
same,EC50,cells [7],> 350 µM (not active)
same,EC50,[12],3.81 µM (active)
same,EC50,BJ [13],11 µM (active)
same,EC50,[14],11.3 µM (active)
same,EC50,[15],2.26 µM (active)
same,EC50,cells [8],7.47 µM (active)
C/C(=N\NC(=O)c1ccc([N+](=O)[O-])c(C)c1)c1ccccc1Cl,IC50,cells [1],42.2 µM (active)
CSc1nncc(/C(C)=N\Nc2ccccc2)n1,EC50,[5],> 300 µM (not active)
same,AC50,Cytochrome P450 3A4,2.51 µM (inconclusive)
same,EC50,[6],41.3 µM (active)
COc1cccc(C2C3=C(N=c4s/c(=C\c5ccccc5O)c(=O)n42)c2ccccc2CC3)c1OC (stereo unspecified),EC50,cells [7],> 350 µM (not active)
same,EC50,cells [8],> 350 µM (not active)
COc1cc(/C=N\NC(=O)CC(=O)NCCc2ccccc2)ccc1O,IC50,[2],27.4 µM (active)
same,AC50,[16],1.7 µM (active)
same,IC50,Large T antigen,7.57 µM (active)
